According to US20240043427A1 (Gilead Sciences, Inc., priority 2020, published 2024):

Tests used:
CD73 [1] = molecular target: T1, CD73 (Homo sapiens (Human), UniProt P21589); assay type: biochemical; settings: 1 mM NaH2PO4 in enzyme buffer, CD73 0.3 nM, AMP 15 uM
CD73 [2] = molecular target: T1, CD73; assay: MDA-MB-231 Cell Based CD73 Activity Assay (DMEM); settings: MDA-MB-231-GFP cells, DMEM medium with 10% human plasma, 200 uM AMP
Procedure: MDA-MB-231 Cell Based CD73 Activity Assay (DMEM) MDA-MB-231-GFP cells were seeded in 384-well plates (Greiner 781946) at a density of 3000 cells per well in 50 μL of DMEM medium with 10% HP (human plasma). Cells were plated into assay plate with compounds pre-spotted, for an overnight compound treatment. 50 uL of 400 uM AMP (final concentration will be 200 uM) was added using Bio-tek dispenser. Plates were incubated for 100 mins. […] The samples were analyzed using Rapid fire.

T1 sequence (P21589 27-574): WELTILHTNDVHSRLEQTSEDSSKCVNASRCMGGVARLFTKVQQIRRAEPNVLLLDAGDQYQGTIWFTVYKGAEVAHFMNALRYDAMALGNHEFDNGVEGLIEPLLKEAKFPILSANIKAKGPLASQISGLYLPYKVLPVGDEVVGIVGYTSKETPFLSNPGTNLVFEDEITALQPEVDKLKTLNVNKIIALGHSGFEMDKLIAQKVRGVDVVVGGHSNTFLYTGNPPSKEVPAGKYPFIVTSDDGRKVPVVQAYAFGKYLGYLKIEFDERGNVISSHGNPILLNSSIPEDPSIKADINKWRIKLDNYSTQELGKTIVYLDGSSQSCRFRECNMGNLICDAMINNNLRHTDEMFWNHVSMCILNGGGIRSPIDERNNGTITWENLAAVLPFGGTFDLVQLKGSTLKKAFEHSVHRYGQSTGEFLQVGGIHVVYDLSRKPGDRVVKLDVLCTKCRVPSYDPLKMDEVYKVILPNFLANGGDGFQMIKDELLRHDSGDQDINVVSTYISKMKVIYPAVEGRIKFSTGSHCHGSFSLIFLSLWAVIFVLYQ

| IC50 (CD73 [1]) [nM] | EC50 (CD73 [2]) [nM] | SMILES |
| --- | --- | --- |
| 2.72 | 2.53 | O=c1[nH]cc(-c2cc([C@@H]3C[C@H]3c3cc(F)c(F)c(F)c3)c3nccn3n2)c(=O)[nH]1 (racemic) [Example 36] |
| 2.1 | 24.8 | O=c1[nH]cc(-c2cc([C@H]3C[C@@H]3c3cc(C(F)(F)F)c4ncccc4c3)c3nccn3n2)c(=O)[nH]1 (racemic) [Example 141, 5-(8-((1S,2S)-2-(8-(trifluoromethyl)quinolin-6-yl)cyclopropyl)imidazo[1,2-b]pyridazin-6-yl)pyrimidine-2,4(1H,3H)-dione and 5-(8-((1R,2R)-2-(8-(trifluoromethyl)quinolin-6-yl)cyclopropyl)imidazo[1,2-b]pyridazin-6-yl)pyrimidine-2,4(1H,3H)-dione] |
| 2.94 |  | O=C1N(CC2(F)CC2)c2cc([C@H]3C[C@@H]3c3cc(-c4c[nH]c(=O)[nH]c4=O)nn4c(F)cnc34)ccc2C12CC2 (racemic) [Example 735, 5-(3-fluoro-8-((1S,2S)-2-(1′-((1-fluorocyclopropyl)methyl)-2′-oxospiro[cyclopropane-1,3′-indolin]-6′-yl)cyclopropyl)imidazo[1,2-b]pyridazin-6-yl)pyrimidine-2,4(1H,3H)-dione] |
| 2.5 |  | O=C1N(CC(F)(F)F)c2cc([C@H]3C[C@@H]3c3cc(-c4c[nH]c(=O)[nH]c4=O)nn4ccnc34)c(F)cc2C12CC2 (racemic) [Example 748, 5-(8-((1S,2S)-2-(5′-fluoro-2′-oxo-1′-(2,2,2-trifluoroethyl)spiro[cyclopropane-1,3′-indolin]-6′-yl)cyclopropyl)imidazo[1,2-b]pyridazin-6-yl)pyrimidine-2,4(1H,3H)-dione] |
| 1.01 |  | O=C1N(CC(F)(F)F)c2cc([C@H]3C[C@@H]3c3cc(-c4c[nH]c(=O)[nH]c4=O)nn4ccnc34)ccc2C12CC2 (single isomer, unassigned) [Example 391] |
| 0.58 |  | O=c1[nH]cc(-c2cc([C@H]3C[C@@H]3c3cc4c(cnn4CC(F)(F)F)cc3F)c3ncc(F)n3n2)c(=O)[nH]1 [Example 613, 5-(3-fluoro-8-((1S,2S)-2-(5-fluoro-1-(2,2,2-trifluoroethyl)-1H-indazol-6-yl)cyclopropyl)imidazo[1,2-b]pyridazin-6-yl)pyrimidine-2,4(1H,3H)-dione] |
| 0.61 |  | O=C1N(CC(F)(F)F)c2cc([C@H]3C[C@@H]3c3cc(-c4c[nH]c(=O)[nH]c4=O)nn4c(Cl)cnc34)ccc2C12CC2 [Example 740, 5-(3-chloro-8-((1S,2S)-2-(2′-oxo-1′-(2,2,2-trifluoroethyl)spiro[cyclopropane-1,3′-indolin]-6′-yl)cyclopropyl)imidazo[1,2-b]pyridazin-6-yl)pyrimidine-2,4(1H,3H)-dione] |
| 0.49 |  | O=C1N(CC(F)(F)F)c2cc([C@H]3C[C@@H]3c3cc(-c4c[nH]c(=O)[nH]c4=O)nn4c(Cl)c(Cl)nc34)ccc2C12CC2 [Example 741, 5-(2,3-dichloro-8-((1S,2S)-2-(2′-oxo-1′-(2,2,2-trifluoroethyl)spiro[cyclopropane-1,3′-indolin]-6′-yl)cyclopropyl)imidazo[1,2-b]pyridazin-6-yl)pyrimidine-2,4(1H,3H)-dione] |

Second part, the compound before the results:

| SMILES | IC50 (CD73 [1]) [nM] | EC50 (CD73 [2]) [nM] |
| --- | --- | --- |
| CC(C)n1ncc2ccc([C@H]3C[C@@H]3c3cc(-c4c[nH]c(=O)[nH]c4=O)nn4ccnc34)cc21 (racemic) [Example 119, 5-(8-((1S,2S)-2-(1-isopropyl-1H-indazol-6-yl)cyclopropyl)imidazo[1,2-b]pyridazin-6-yl)pyrimidine-2,4(1H,3H)-dione and 5-(8-((1R,2R)-2-(1-isopropyl-1H-indazol-6-yl)cyclopropyl)imidazo[1,2-b]pyridazin-6-yl)pyrimidine-2,4(1H,3H)-dione] | 0.56 | 1.09 |
| O=c1[nH]cc(-c2cc([C@H]3C[C@@H]3c3ccc(OC(F)F)nc3)c3ncc(F)n3n2)c(=O)[nH]1 (racemic) [Example 121, 5-(8-((1S,2S)-2-(6-(difluoromethoxy)pyridin-3-yl)cyclopropyl)-3-fluoroimidazo[1,2-b]pyridazin-6-yl)pyrimidine-2,4(1H,3H)-dione and 5-(8-((1R,2R)-2-(6-(difluoromethoxy)pyridin-3-yl)cyclopropyl)-3-fluoroimidazo[1,2-b]pyridazin-6-yl)pyrimidine-2,4(1H,3H)-dione] | 1.08 | 19.7 |
| O=c1[nH]cc(-c2cc([C@H]3C[C@@H]3c3ccc4cnn(CC(F)F)c4c3)c3nccn3n2)c(=O)[nH]1 (racemic) [Example 123, 5-(8-((1S,2S)-2-(1-(2,2-difluoroethyl)-1H-indazol-6-yl)cyclopropyl)imidazo[1,2-b]pyridazin-6-yl)pyrimidine-2,4(1H,3H)-dione and 5-(8-((1R,2R)-2-(1-(2,2-difluoroethyl)-1H-indazol-6-yl)cyclopropyl)imidazo[1,2-b]pyridazin-6-yl)pyrimidine-2,4(1H,3H)-dione] | 0.69 | 0.37 |
| O=c1[nH]cc(-c2cc([C@H]3C[C@@H]3c3ccc(OC(F)F)cn3)c3nccn3n2)c(=O)[nH]1 (racemic) [Example 136, 5-(8-((1S,2S)-2-(5-(difluoromethoxy)pyridin-2-yl)cyclopropyl)imidazo[1,2-b]pyridazin-6-yl)pyrimidine-2,4(1H,3H)-dione and 5-(8-((1R,2R)-2-(5-(difluoromethoxy)pyridin-2-yl)cyclopropyl)imidazo[1,2-b]pyridazin-6-yl)pyrimidine-2,4(1H,3H)-dione] | 3.11 | 6.37 |
| O=c1[nH]cc(-c2cc([C@H]3C[C@@H]3c3ccc4cnc(C(F)(F)F)cc4c3)c3nccn3n2)c(=O)[nH]1 (racemic) [Example 138, 5-(8-((1S,2S)-2-(3-(trifluoromethyl)isoquinolin-6-yl)cyclopropyl)imidazo[1,2-b]pyridazin-6-yl)pyrimidine-2,4(1H,3H)-dione and 5-(8-((1R,2R)-2-(3-(trifluoromethyl)isoquinolin-6-yl)cyclopropyl)imidazo[1,2-b]pyridazin-6-yl)pyrimidine-2,4(1H,3H)-dione] | 0.95 | 0.64 |
| O=c1[nH]cc(-c2cc([C@H]3C[C@@H]3c3ccc4nc(C(F)(F)F)ccc4c3)c3nccn3n2)c(=O)[nH]1 (racemic) [Example 142, 5-(8-((1S,2S)-2-(2-(trifluoromethyl)quinolin-6-yl)cyclopropyl)imidazo[1,2-b]pyridazin-6-yl)pyrimidine-2,4(1H,3H)-dione and 5-(8-((1R,2R)-2-(2-(trifluoromethyl)quinolin-6-yl)cyclopropyl)imidazo[1,2-b]pyridazin-6-yl)pyrimidine-2,4(1H,3H)-dione] | 0.96 | 3.76 |
| O=c1[nH]cc(-c2cc(N3CCC4(C3)CC4(F)F)c3nccn3n2)c(=O)[nH]1 (stereo not shown) [Example 192] |  | 20.9 |
| O=C(c1ccc([C@H]2C[C@@H]2c2cc(-c3c[nH]c(=O)[nH]c3=O)nn3c(F)cnc23)cc1)N1CC(F)(F)C1 [Example 313, 5-(8-((1S,2S)-2-(4-(3,3-difluoroazetidine-1-carbonyl)phenyl)cyclopropyl)-3-fluoroimidazo[1,2-b]pyridazin-6-yl)pyrimidine-2,4(1H,3H)-dione] | 2.35 |  |
| O=c1[nH]cc(-c2cc([C@H]3C[C@@H]3c3cnn(C(F)F)c3)c3ncc(F)n3n2)c(=O)[nH]1 [Example 371, 5-(8-((1S,2S)-2-(1-(difluoromethyl)-1H-pyrazol-4-yl)cyclopropyl)-3-fluoroimidazo[1,2-b]pyridazin-6-yl)pyrimidine-2,4(1H,3H)-dione] | 4.95 |  |
| O=c1[nH]cc(-c2cc([C@H]3C[C@@H]3c3ccc(OC(F)(F)F)cn3)c3nccn3n2)c(=O)[nH]1 [Example 373, 5-(8-((1S,2S)-2-(5-(trifluoromethoxy)pyridin-2-yl)cyclopropyl)imidazo[1,2-b]pyridazin-6-yl)pyrimidine-2,4(1H,3H)-dione] | 2.56 |  |
| O=c1[nH]cc(-c2cc(N3CC4CC(F)(C4)C3)c3nccn3n2)c(=O)[nH]1 [Example 579, 5-(8-(1-fluoro-3-azabicyclo[3.1.1]heptan-3-yl)imidazo[1,2-b]pyridazin-6-yl)pyrimidine-2,4(1H,3H)-dione] |  | 111 |
| O=c1[nH]cc(-c2cc([C@H]3C[C@@H]3c3cc4c(cn3)cnn4CC(F)(F)F)c3ncc(F)n3n2)c(=O)[nH]1 [Example 611, 5-(3-fluoro-8-((1S,2S)-2-(1-(2,2,2-trifluoroethyl)-1H-pyrazolo[4,3-c]pyridin-6-yl)cyclopropyl)imidazo[1,2-b]pyridazin-6-yl)pyrimidine-2,4(1H,3H)-dione] | 0.4 |  |
| O=c1[nH]cc(-c2cc([C@H]3C[C@@H]3c3ccc4cnn(CC(F)(F)F)c4c3F)c3ncc(F)n3n2)c(=O)[nH]1 [Example 630, 5-(3-fluoro-8-((1S,2S)-2-(7-fluoro-1-(2,2,2-trifluoroethyl)-1H-indazol-6-yl)cyclopropyl)imidazo[1,2-b]pyridazin-6-yl)pyrimidine-2,4(1H,3H)-dione] |  | 0.08 |
| CC(C)(C)COc1cc(-c2c[nH]c(=O)[nH]c2=O)nn2ccnc12 [Example 679, 5-(8-(neopentyloxy)imidazo[1,2-b]pyridazin-6-yl)pyrimidine-2,4(1H,3H)-dione] |  | 124 |
| CC(C)NC(=O)O[C@H]1CN(c2cc(-c3c[nH]c(=O)[nH]c3=O)nc3ccnn23)CC1(F)F [Example 713, (S)-1-(5-(2,4-dioxo-1,2,3,4-tetrahydropyrimidin-5-yl)pyrazolo[1,5-a]pyrimidin-7-yl)-4,4-difluoropyrrolidin-3-yl isopropylcarbamate] |  | 0.39 |
